Consider 29 molecules from patent US9040725B2, “Benzocycloheptane and benzoxepine derivatives” (Janssen Pharmaceutica NV, priority 2008, dated 2015).

A value given as a limit tells only on which side of the number the result lay.

One assay relates to NMRI-mice. In words: Acceleration of gastric emptying and small intestinal propulsion in NMRI-mice. The assay is classed as in vivo. The settings on record: lowest active dose; subcutaneous, 30 min before phenol red test meal; active when >60% of animals had phenol red front beyond 85% of small intestinal length. The protocol: Male NMRI-mice weighing around 25 gram were fasted for 20 h and had free access to drinking water. Test compounds were administered to the animals by subcutaneous route 30 min before they were given a test meal by oral gavage. The test meal consisted of 0.3 ml of a chocolate nutridrink solution (1.0 kcal/ml) containing phenol red marker (5 mg/ml). Fifteen min after administration of the meal, the mice were sacrificed by CO2 gas inhalation. The phenol red content remaining in the stomach (extracted from the stomach with NaOH) was determined at 557 nm in a spectrophotometer and expressed as extinction units. Small intestinal propulsion was determined as the distance traveled by the phenol red marker through the intestine and expressed as a percentage of total small intestinal length (from the pylorus to the ileo-cecal junction).
The lowest dose that was active for each parameter was noted as the lowest active dose (LAD). Table 12 discloses LAD values.
For GHRP-6 [reference compound], the “LAD (mg/kg) Small intestinal propulsion” value stood at 2.5 mg/kg.

Staying with this assay, now noted: lowest active dose; subcutaneous, 30 min before phenol red test meal; stomach content 15 min after meal; active when >60% of animals below 0.9 extinction units.
As for GHRP-6 [reference compound], the “LAD (mg/kg) Gastric emptying” value was found to be 0.63 mg/kg.

The target in a further assay is T1, GHS1A-receptor (Homo sapiens, UniProt Q92847).
T1 construct: expressed in transfected cells; host or cells: HEK293
T1 sequence (Q92847 whole entry): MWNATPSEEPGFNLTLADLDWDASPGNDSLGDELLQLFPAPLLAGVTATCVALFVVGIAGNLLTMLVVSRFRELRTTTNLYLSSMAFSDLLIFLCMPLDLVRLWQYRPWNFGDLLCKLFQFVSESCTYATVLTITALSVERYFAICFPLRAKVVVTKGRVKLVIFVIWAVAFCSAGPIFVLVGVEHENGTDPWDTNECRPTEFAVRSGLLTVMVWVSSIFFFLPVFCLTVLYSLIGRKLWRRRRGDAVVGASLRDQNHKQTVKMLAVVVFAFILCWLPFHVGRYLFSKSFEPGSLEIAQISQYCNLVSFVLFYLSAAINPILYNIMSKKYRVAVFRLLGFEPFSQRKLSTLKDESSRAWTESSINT
In words: Ghrelin-agonism in HEK293 cells (intracellular calcium, FLIPR). The assay is classed as cell-based. The note with it: HEK293 cells permanently transfected with GHS1A-receptor, calcium fluorescence (fluo-4 or Kit-3), EC50 in M, read-out: pEC50 (converted). The protocol:
One day before the experiment, HEK293 cells, permanently transfected with the gene sequence for expression of the GHS1A-receptor, were seeded in poly-D-Lysine coated 96-well plates with clear bottom, and allowed to grow to […] of confluence on the next day.
Then, cells were incubated with the calcium-sensitive intracellular fluorescent probe fluo-4 or Kit-3 for 1 h at 37° C. Fluorescence representing free intracellular calcium in the cells was measured in a FLIPR-system (excitation at 488 nm, emission>520 nm). Test compounds were added to each well at the desired concentration and the fluorescence signal was simultaneously recorded in all wells. Release of intracellular calcium triggered by activation of the receptors upon addition of the test compound was measured as the fluorescence emitted from the complex of calcium and the fluorescent probe. The drug effect on fluorescence intensity was expressed relative to the maximal fluorescence intensity measured in cells exposed to the calcium-ionophore ionomycin.
In the case of `Cc1ccc([C@H]2CCOc3ccccc3[C@]2(O)CCCN(C)C)cn1` (racemic) [Compound 9], the EC50 was 794 nM.
Consider `COc1ccc(C2CCCc3ccccc3C2(O)CCCN(C)Cc2ccccc2)cc1` (racemic) [Compound 69], for which the EC50 was over 10000 nM.
With `COc1cncc(C2CCOc3ccccc3C2(O)CCCN(C)C)c1` (racemic) [Compound 100], the EC50 is 3980 nM.
Turning to `CC(=O)N1CCN(CCCC2(O)c3ccccc3CCCC2c2cccc(C)c2)CC1` (racemic) [Compound 26], the EC50 was 3160 nM.
Take `CN1CCN(CCCC2(O)c3ccccc3CCCC2c2ccc(F)cc2)CC1` (racemic) [Compound 55]: the EC50 was 1580 nM.
On the same count and under the same terms, under `CN(C)CCCC1(O)c2ccccc2CCCC1c1ccc(Cl)cc1` (single isomer, unassigned) [Compound 5] stands 1000 nM.
Still for that read-out and setting: under `CN(C)CCCC1(O)c2ccccc2CCCC1c1ccccc1` (single isomer, unassigned) [Compound 104] stands 2000 nM; under `CCN(CC)CCCC1(O)c2ccccc2OCCC1c1ccc(OC)nc1` (racemic) [Compound 103], 6310 nM; under `CCN(CC)CCCC1(O)c2ccccc2OCCC1c1cncc(OC)c1` (racemic) [Compound 101], 2000 nM.
Regarding `CC(C)NCCCC1(O)c2ccccc2CCCC1c1ccc(Cl)cc1` (racemic) [Compound 45], the EC50 is 794 nM.
Turning to `Oc1ccc([C@H]2CCCc3ccccc3[C@]2(O)CCCN2CCOCC2)cc1` (racemic) [Compound 7], the EC50 was over 10000 nM.
Same read-out and setting: then `CN(CCCC1(O)c2ccccc2CCCC1c1cnc2ccccc2c1)Cc1ccccc1` (racemic) [Compound 87], with 1580 nM; and `CN(C)CCC[C@@]1(O)c2ccccc2OCC[C@@H]1c1ccccc1` (relative stereo) [Compound 8], with 316 nM; and `CO[C@]1(CCCN(C)C)c2ccccc2CCC[C@@H]1c1ccc(Cl)cc1` (racemic) [Compound 15], with 1580 nM.
Take `CCN(CC)CCCC1(O)c2ccccc2CCCC1c1ccc(C)cc1` (racemic) [Compound 31]: the EC50 was 25.1 nM.
As for `CN(CCCC1(O)c2ccccc2CCCC1c1ccc(Cl)cc1)Cc1ccccc1` (racemic) [Compound 47], the EC50 was 5010 nM.
On the same count and under the same terms, then `OC1CCN(CCCC2(O)c3ccccc3CCCC2c2ccc(Cl)cc2)C1` (racemic) [Compound 49], with 79.4 nM.
`COc1ccc(C2CCCc3ccccc3C2(O)CCCNCc2ccccc2)cc1` (racemic) [Compound 68]: the EC50 is over 31600 nM.
Same read-out and setting: under `COCCN(C)CCCC1(O)c2ccccc2CCCC1c1ccc2c(c1)OCO2` (racemic) [Compound 90] stands 158 nM; under `CNCCCC1(O)c2ccccc2CCCC1c1ccc(OC)cc1` (racemic) [Compound 65], 794 nM.
The same measure, in the same setting: under `CCN(CC)CCCC1(O)c2ccccc2CCCC1c1cccc(OC)c1` (racemic) [Compound 61] stands 25.1 nM; under `OC1(CCCN2CCCCC2)c2ccccc2CCCC1c1ccc(Cl)cc1` (racemic) [Compound 50], 794 nM; under `COCCN(C)CCCC1(O)c2ccccc2CCCC1c1ccc(OC)cc1` (racemic) [Compound 70], 1260 nM.
`COCCN(C)CCCC1(O)c2ccccc2CCCC1c1ccc(Cl)c(OC)c1` (racemic) [Compound 75]: the EC50 is 15.8 nM.
As to `COCCN(C)CCCC1(O)c2ccccc2CCCC1c1ccc(O)cc1` (racemic) [Compound 37], the EC50 is 2000 nM.
`Cc1ccc(C2CCCc3ccccc3C2(O)CCCN2CCN(C)CC2)cc1` (racemic) [Compound 33]: the EC50 is 3160 nM.
Consider `Cc1ccc(C2CCCc3ccccc3C2(O)CCCN2CCCCC2)cc1` (racemic) [Compound 32], for which the EC50 is 1000 nM.
As to `CNCCCC1(O)c2ccccc2CCCC1c1ccc(OC)c(OC)c1` (racemic) [Compound 76], the EC50 is 1580 nM.
